pIC50: −log10 of the molar value. Bridge positions count the residues as written; N and C are the ends. Square brackets hold non-standard residues; d marks the D form. Peptide text beside a SMILES is read from it. * marks the point of attachment. NH(β-GlcNAc) = CC(=O)N[C@@H]1[C@@H](O)[C@H](O)[C@@H](CO)O[C@H]1N*; Dap = NC[C@H](N)C(=O)O
Tested on: SARS-CoV-2
Assay: microbe, parasite or virus in culture
Details: Severe acute respiratory syndrome coronavirus 2, Vero C1008, 48 h; for IC50: read-out: pIC50 (converted)

With CC[C@@H](Nc1c(Nc2cccc(C(=O)N(C)C)c2O)c(=O)c1=O)c1ccc(C)o1 [NAVARIXIN ANHYDROUS] the pIC50 was < 4.70 and the IC50 was > 20 µM.
With Cc1cc(C(=O)Nc2nc3cccc(Cl)c3n2[C@@H]2CCCCN(C(=O)/C=C/CN(C)C)C2)ccn1 [NAZARTINIB] the pIC50 was < 4.70 and the IC50 was > 20 µM.
For NC[C@H]1O[C@H](O[C@H]2[C@H](O)[C@@H](O)[C@H](N)C[C@@H]2N)[C@H](N)[C@@H](O)[C@@H]1O [NEAMINE], the pIC50 was < 4.70 and the IC50 was > 20 µM.
CCCc1c2oc(C(=O)O)cc(=O)c2cc2c(=O)cc(C(=O)O)n(CC)c12 [NEDOCROMIL] was tested, and the pIC50 was < 4.70 and the IC50 was > 20 µM.
In the case of CCc1nn(CCCN2CCN(c3cccc(Cl)c3)CC2)c(=O)n1CCOc1ccccc1 [NEFAZODONE], the pIC50 was < 4.70 and the IC50 was > 20 µM.
In the case of O=c1ncn2nc(Sc3ccc(F)cc3F)ccc2c1-c1c(Cl)cccc1Cl [NEFLAMAPIMOD], the pIC50 was < 4.70 and the IC50 was > 20 µM.
With CN1CCOC(c2ccccc2)c2ccccc2C1 (stereo unspecified) [NEFOPAM] the pIC50 was < 4.70 and the IC50 was > 20 µM.
With COc1nc(N)nc2c1ncn2[C@@H]1O[C@H](CO)[C@@H](O)[C@@H]1O [NELARABINE] the pIC50 was < 4.30 and the IC50 was > 50.1 µM.
In the case of COc1ccc(CCC(=O)c2c(O)cc(O[C@@H]3O[C@H](CO)[C@@H](O)[C@H](O)[C@H]3O[C@@H]3O[C@@H](C)[C@H](O)[C@@H](O)[C@H]3O)cc2O)cc1O [NEOHESPERIDIN DIHYDROCHALCONE], the pIC50 was < 4.70 and the IC50 was > 20 µM.
With CN(C)C(=O)Oc1cccc([N+](C)(C)C)c1 [NEOSTIGMINE] the pIC50 was < 4.70 and the IC50 was > 20 µM.
In the case of CC(=O)N[C@@H]1[C@@H](O)[C@H](O)[C@@H](CO)O[C@H]1NC(=O)C[C@@H]1NC(=O)[C@H](CC(C)C)NC(=O)[C@@H]2CNC(=O)C[C@H](NC1=O)C(=O)N[C@@H](Cc1c[nH]c3ccccc13)C(=O)N[C@@H](Cc1ccccc1)C(=O)N2 [NEPADUTANT] (cyclo(D(NH(β-GlcNAc))DWF[Dap]L); lactam 2-5), the pIC50 was < 4.70 and the IC50 was > 20 µM.
For CNC(=O)c1c(-c2ccc(F)cc2)oc2cc(N(CCO)S(C)(=O)=O)c(C3CC3)cc12 [NESBUVIR], the pIC50 was < 4.70 and the IC50 was > 20 µM.
In the case of O=C1NC(=O)C(Cc2ccc3cc(OCc4ccccc4F)ccc3c2)S1 (stereo unspecified) [NETOGLITAZONE], the pIC50 was < 4.70 and the IC50 was > 20 µM.
Cc1ccccc1-c1cc(N2CCN(C)CC2)ncc1N(C)C(=O)C(C)(C)c1cc(C(F)(F)F)cc(C(F)(F)F)c1 [NETUPITANT] was tested, and the pIC50 was < 4.70 and the IC50 was > 20 µM.
In the case of Cc1ccnc2c1NC(=O)c1cccnc1N2C1CC1 [NEVIRAPINE], the pIC50 was < 4.70 and the IC50 was > 20 µM.
NC(=O)c1cccnc1 [NIACINAMIDE] was tested, and the pIC50 was < 4.70 and the IC50 was > 20 µM.
With O=C(O)c1cccnc1 [NIACIN] the pIC50 was < 4.70 and the IC50 was > 20 µM.
With O=C(CCNNC(=O)c1ccncc1)NCc1ccccc1 [NIALAMIDE] the pIC50 was < 4.70 and the IC50 was > 20 µM.
With CC(CCN1CCN(c2ccc(F)cc2)CC1)NC(=O)c1cccnc1 (stereo unspecified) [NIAPRAZINE] the pIC50 was < 4.70 and the IC50 was > 20 µM.
For COC(=O)C1=C(C)NC(C)=C(C(=O)OCCN(C)Cc2ccccc2)C1c1cccc([N+](=O)[O-])c1 (stereo unspecified) [NICARDIPINE], the pIC50 was < 4.70 and the IC50 was > 20 µM.
In the case of CO[C@]12C[C@@H](COC(=O)c3cncc(Br)c3)CN(C)[C@@H]1Cc1cn(C)c3cccc2c13 [NICERGOLINE], the pIC50 was < 4.70 and the IC50 was > 20 µM.
With O=C(Nc1ccc([N+](=O)[O-])cc1Cl)c1cc(Cl)ccc1O [NICLOSAMIDE] the pIC50 was < 4.70 and the IC50 was > 20 µM.
In the case of O=C(c1cccnc1)N1CCOCC1 [NICOPHOLINE], the pIC50 was < 4.70 and the IC50 was > 20 µM.
For O=C(NCCO[N+](=O)[O-])c1cccnc1 [NICORANDIL], the pIC50 was < 4.70 and the IC50 was > 20 µM.
In the case of NC(=O)c1ccc[n+]([C@@H]2O[C@H](CO)[C@@H](O)[C@H]2O)c1 [NICOTINAMIDE RIBOSIDE], the pIC50 was < 4.70 and the IC50 was > 20 µM.
With CN1CCC[C@H]1c1cccnc1 [NICOTINE] the pIC50 was < 4.70 and the IC50 was > 20 µM.
In the case of OCc1cccnc1 [NICOTINYL ALCOHOL], the pIC50 was < 4.70 and the IC50 was > 20 µM.
In the case of COC(=O)C1=C(C)NC(C)=C(C(=O)OC)C1c1ccccc1[N+](=O)[O-] [NIFEDIPINE], the pIC50 was < 4.70 and the IC50 was > 20 µM.
Cn1c(NCCN(CCO)CCCc2ccc([N+](=O)[O-])cc2)cc(=O)n(C)c1=O [NIFEKALANT] was tested, and the pIC50 was < 4.70 and the IC50 was > 20 µM.
In the case of O=C(O)c1cccnc1Nc1cccc(C(F)(F)F)c1 [NIFLUMIC ACID], the pIC50 was < 4.70 and the IC50 was > 20 µM.
In the case of O=C(N/N=C/c1ccc([N+](=O)[O-])o1)c1ccc(O)cc1 [NIFUROXAZIDE], the pIC50 was < 4.70 and the IC50 was > 20 µM.
Cc1cn(-c2cc(NC(=O)c3ccc(C)c(Nc4nccc(-c5cccnc5)n4)c3)cc(C(F)(F)F)c2)cn1 [NILOTINIB] was tested, and the pIC50 was < 4.70 and the IC50 was > 20 µM.
With CC1(C)NC(=O)N(c2ccc([N+](=O)[O-])c(C(F)(F)F)c2)C1=O [NILUTAMIDE] the pIC50 was < 4.70 and the IC50 was > 20 µM.
In the case of C/C=C/C[C@@H](C)[C@@H](O)[C@H]1C(=O)N[C@@H](CC)C(=O)N(C)CC(=O)N(C)[C@@H]([C@@H](C)CC)C(=O)N[C@@H](C(C)C)C(=O)N(C)[C@@H](CC(C)C)C(=O)N[C@@H](C)C(=O)N[C@H](C)C(=O)N(C)[C@@H](CC(C)C)C(=O)N(C)[C@@H](CC(C)C)C(=O)N(C)[C@@H](C(C)C)C(=O)N1C [NIM811], the pIC50 was < 4.70 and the IC50 was > 20 µM.
COCCOC(=O)C1=C(C)NC(C)=C(C(=O)OC(C)C)C1c1cccc([N+](=O)[O-])c1 (stereo unspecified) [NIMODIPINE] was tested, and the pIC50 was < 4.70 and the IC50 was > 20 µM.
With O=[N+]([O-])c1cncn1CCN1CCOCC1 [NIMORAZOLE] the pIC50 was < 4.70 and the IC50 was > 20 µM.
Cc1ncc(CNC(=O)N(CCCl)N=O)c(N)n1 [NIMUSTINE] was tested, and the pIC50 was < 4.70 and the IC50 was > 20 µM.
With COC(=O)c1ccc2c(c1)NC(=O)/C2=C(\Nc1ccc(N(C)C(=O)CN2CCN(C)CC2)cc1)c1ccccc1 [NINTEDANIB] the pIC50 was < 4.70 and the IC50 was > 20 µM.
O=C1NCCN1c1ncc([N+](=O)[O-])s1 [NIRIDAZOLE] was tested, and the pIC50 was < 4.70 and the IC50 was > 20 µM.
With COC(=O)C1=C(C)NC(C)=C(C(=O)OCC(C)C)C1c1ccccc1[N+](=O)[O-] (stereo unspecified) [NISOLDIPINE] the pIC50 was < 4.70 and the IC50 was > 20 µM.
With CNCCC(Oc1ccccc1OC)c1ccccc1 (stereo unspecified) [NISOXETINE] the pIC50 was < 4.70 and the IC50 was > 20 µM.
For CC(=O)Oc1ccccc1C(=O)Nc1ncc([N+](=O)[O-])s1 [NITAZOXANIDE], the pIC50 was < 4.70 and the IC50 was > 20 µM.
CC(=O)Nc1ncc([N+](=O)[O-])s1 [NITHIAMIDE] was tested, and the pIC50 was < 4.70 and the IC50 was > 20 µM.
In the case of CCn1c(=O)c2ccccc2n(-c2cccc([N+](=O)[O-])c2)c1=O [NITRAQUAZONE], the pIC50 was < 4.70 and the IC50 was > 20 µM.
O=C1CN=C(c2ccccc2)c2cc([N+](=O)[O-])ccc2N1 [NITRAZEPAM] was tested, and the pIC50 was < 4.70 and the IC50 was > 20 µM.
In the case of CCOC(=O)C1=C(C)NC(C)=C(C(=O)OC)C1c1cccc([N+](=O)[O-])c1 (stereo unspecified) [NITRENDIPINE], the pIC50 was < 4.70 and the IC50 was > 20 µM.
In the case of O=C1CN(/N=C/c2ccc([N+](=O)[O-])o2)C(=O)N1 [NITROFURANTOIN], the pIC50 was < 4.70 and the IC50 was > 20 µM.
In the case of NC(=O)N/N=C/c1ccc([N+](=O)[O-])o1 [NITROFURAZONE], the pIC50 was < 4.70 and the IC50 was > 20 µM.
In the case of O=[N+]([O-])OCC(CO[N+](=O)[O-])O[N+](=O)[O-] [NITROGLYCERIN], the pIC50 was < 4.70 and the IC50 was > 20 µM.
With NC(=O)c1cc([N+](=O)[O-])cc([N+](=O)[O-])c1 [NITROMIDE] the pIC50 was < 4.70 and the IC50 was > 20 µM.
In the case of O=[N+]([O-])c1ccc(O)c2ncccc12 [NITROXOLINE], the pIC50 was < 4.70 and the IC50 was > 20 µM.
CNC(=C[N+](=O)[O-])NCCSCc1csc(CN(C)C)n1 [NIZATIDINE] was tested, and the pIC50 was < 4.70 and the IC50 was > 20 µM.
For Cc1ccc(Cn2c(NC3CCNCC3)nc3cccnc32)o1 [NOBERASTINE], the pIC50 was < 4.70 and the IC50 was > 20 µM.
For COC(=O)Nc1nc2cc(C(=O)c3cccs3)ccc2[nH]1 [NOCODAZOLE], the pIC50 was < 4.70 and the IC50 was > 20 µM.
In the case of CC(=O)O[C@]1(C(C)=O)CC[C@H]2[C@@H]3C=C(C)C4=CC(=O)CC[C@@H]4[C@H]3CC[C@@]21C [NOMEGESTROL ACETATE], the pIC50 was < 4.70 and the IC50 was > 20 µM.
CCC(OC(C)=O)C(CC(C)NC)(c1ccccc1)c1ccccc1 (stereo unspecified) [NORACYMETHADOL] was tested, and the pIC50 was < 4.70 and the IC50 was > 20 µM.
With COc1ccc2c3c1O[C@H]1[C@@H](O)C=C[C@H]4[C@@H](C2)NCC[C@@]341 [NORCODEINE] the pIC50 was < 4.70 and the IC50 was > 20 µM.
For O=C1CN=C(c2ccccc2)c2cc(Cl)ccc2N1 [NORDAZEPAM], the pIC50 was < 4.70 and the IC50 was > 20 µM.
In the case of NC[C@H](O)c1ccc(O)c(O)c1 [NOREPINEPHRINE], the pIC50 was < 4.70 and the IC50 was > 20 µM.
C#C[C@]1(OC(C)=O)CC[C@H]2[C@@H]3CCC4=CC(=O)CC[C@@H]4[C@H]3CC[C@@]21C [NORETHINDRONE ACETATE] was tested, and the pIC50 was < 4.70 and the IC50 was > 20 µM.
C#C[C@]1(O)CC[C@H]2[C@@H]3CCC4=CC(=O)CC[C@@H]4[C@H]3CC[C@@]21C [NORETHINDRONE] was tested, and the pIC50 was < 4.70 and the IC50 was > 20 µM.
C#C[C@]1(O)CC[C@H]2[C@@H]3CCC4=C(CCC(=O)C4)[C@H]3CC[C@@]21C [NORETHYNODREL] was tested, and the pIC50 was < 4.70 and the IC50 was > 20 µM.
With NCC(O)c1cccc(O)c1 (stereo unspecified) [NORFENEFRINE] the pIC50 was < 4.70 and the IC50 was > 20 µM.
In the case of CCn1cc(C(=O)O)c(=O)c2cc(F)c(N3CCNCC3)cc21 [NORFLOXACIN], the pIC50 was < 4.70 and the IC50 was > 20 µM.
c1ccc2c(c1)[nH]c1cnccc12 [NORHARMANE] was tested, and the pIC50 was < 4.70 and the IC50 was > 20 µM.
With CCC(=O)C(CCN(C)C)(c1ccccc1)c1ccccc1 [NORMETHADONE] the pIC50 was < 4.70 and the IC50 was > 20 µM.
Oc1ccc2c3c1O[C@H]1[C@@H](O)C=C[C@H]4[C@@H](C2)NCC[C@@]341 [NORMORPHINE] was tested, and the pIC50 was < 4.70 and the IC50 was > 20 µM.
For CCC(=O)C(CCN1CCCCC1)(c1ccccc1)c1ccccc1 [NORPIPANONE], the pIC50 was < 4.70 and the IC50 was > 20 µM.
